Each structure is given as a SMILES string.

This experiment deals with human Cav2.2 (Homo sapiens, UniProt Q00975). The experiment in a line: Assessment of calcium channel activity using FLIPR (Ca2+ influx in IMR32 cells). The experiment is classed as cell-based. In a few lines: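 Human neuroblastoma IMR32 cells were seeded at 1−1.2×10^5 cells/well and cultured 48 h at 37 °C before FLIPR calcium influx measurement. Percent inhibition at each concentration was calculated against the no-inhibitor signal, and IC50 came from sigmoidal dose-response fits.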
human Cav2.2, sequence (Q00975 whole entry): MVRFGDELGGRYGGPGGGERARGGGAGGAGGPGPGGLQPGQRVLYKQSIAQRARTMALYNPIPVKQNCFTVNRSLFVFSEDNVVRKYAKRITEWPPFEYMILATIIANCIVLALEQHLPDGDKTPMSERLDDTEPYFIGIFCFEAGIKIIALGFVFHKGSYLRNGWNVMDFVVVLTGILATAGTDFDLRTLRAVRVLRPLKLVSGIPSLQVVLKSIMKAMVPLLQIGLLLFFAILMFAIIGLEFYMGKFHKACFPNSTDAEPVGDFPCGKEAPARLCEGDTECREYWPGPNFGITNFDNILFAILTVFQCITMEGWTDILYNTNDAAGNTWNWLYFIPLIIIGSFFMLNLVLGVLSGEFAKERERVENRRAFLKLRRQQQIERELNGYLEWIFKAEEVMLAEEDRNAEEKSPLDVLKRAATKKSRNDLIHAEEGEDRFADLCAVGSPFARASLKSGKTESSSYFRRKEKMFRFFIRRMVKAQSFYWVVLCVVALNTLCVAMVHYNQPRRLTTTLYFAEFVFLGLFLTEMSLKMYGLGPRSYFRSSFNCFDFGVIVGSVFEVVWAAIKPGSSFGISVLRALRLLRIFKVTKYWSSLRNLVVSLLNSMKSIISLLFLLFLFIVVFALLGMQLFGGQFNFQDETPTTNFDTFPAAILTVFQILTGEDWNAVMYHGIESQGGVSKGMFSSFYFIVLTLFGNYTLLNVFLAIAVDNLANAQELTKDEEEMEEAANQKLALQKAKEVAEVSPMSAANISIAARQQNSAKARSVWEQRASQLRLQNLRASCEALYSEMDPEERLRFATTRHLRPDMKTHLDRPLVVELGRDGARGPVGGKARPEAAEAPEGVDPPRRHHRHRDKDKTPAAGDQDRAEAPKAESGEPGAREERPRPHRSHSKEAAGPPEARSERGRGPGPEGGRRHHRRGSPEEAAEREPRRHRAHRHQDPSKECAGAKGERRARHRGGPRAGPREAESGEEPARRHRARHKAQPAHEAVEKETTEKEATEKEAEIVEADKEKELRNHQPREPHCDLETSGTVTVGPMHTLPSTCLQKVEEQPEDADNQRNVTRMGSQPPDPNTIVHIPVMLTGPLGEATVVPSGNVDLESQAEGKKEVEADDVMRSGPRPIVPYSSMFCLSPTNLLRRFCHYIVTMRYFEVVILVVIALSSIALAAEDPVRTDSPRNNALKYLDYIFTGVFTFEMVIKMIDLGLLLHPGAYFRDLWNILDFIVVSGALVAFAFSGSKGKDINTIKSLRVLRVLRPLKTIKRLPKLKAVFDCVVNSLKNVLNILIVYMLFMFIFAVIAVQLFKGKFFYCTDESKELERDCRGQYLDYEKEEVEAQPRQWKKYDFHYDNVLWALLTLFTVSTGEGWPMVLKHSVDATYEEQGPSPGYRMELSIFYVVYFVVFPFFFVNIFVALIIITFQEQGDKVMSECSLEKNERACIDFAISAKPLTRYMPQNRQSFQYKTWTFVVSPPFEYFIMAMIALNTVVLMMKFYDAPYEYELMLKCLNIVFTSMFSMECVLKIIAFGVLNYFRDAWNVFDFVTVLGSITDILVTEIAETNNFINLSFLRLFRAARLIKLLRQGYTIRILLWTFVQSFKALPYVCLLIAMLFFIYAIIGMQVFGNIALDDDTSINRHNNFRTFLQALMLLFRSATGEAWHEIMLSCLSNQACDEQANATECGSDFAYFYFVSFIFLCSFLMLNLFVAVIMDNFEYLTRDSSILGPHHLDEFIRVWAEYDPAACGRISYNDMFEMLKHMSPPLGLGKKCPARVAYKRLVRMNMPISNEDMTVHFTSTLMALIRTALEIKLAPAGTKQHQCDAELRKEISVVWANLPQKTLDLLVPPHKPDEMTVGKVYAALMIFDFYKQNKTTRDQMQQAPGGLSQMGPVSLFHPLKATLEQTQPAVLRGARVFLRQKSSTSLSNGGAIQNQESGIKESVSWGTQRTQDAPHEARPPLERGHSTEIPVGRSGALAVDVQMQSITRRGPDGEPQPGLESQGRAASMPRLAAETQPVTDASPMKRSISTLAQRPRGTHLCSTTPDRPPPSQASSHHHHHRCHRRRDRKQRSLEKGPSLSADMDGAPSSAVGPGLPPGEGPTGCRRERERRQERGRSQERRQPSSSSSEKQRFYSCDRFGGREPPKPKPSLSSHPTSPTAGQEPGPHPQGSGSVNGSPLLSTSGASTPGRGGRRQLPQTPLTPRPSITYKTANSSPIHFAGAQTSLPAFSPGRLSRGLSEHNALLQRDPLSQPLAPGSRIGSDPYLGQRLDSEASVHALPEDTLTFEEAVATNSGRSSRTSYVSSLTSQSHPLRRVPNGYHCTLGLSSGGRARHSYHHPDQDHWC
human Cav2.2, sequence (P54289 25-956 partner limits assumed): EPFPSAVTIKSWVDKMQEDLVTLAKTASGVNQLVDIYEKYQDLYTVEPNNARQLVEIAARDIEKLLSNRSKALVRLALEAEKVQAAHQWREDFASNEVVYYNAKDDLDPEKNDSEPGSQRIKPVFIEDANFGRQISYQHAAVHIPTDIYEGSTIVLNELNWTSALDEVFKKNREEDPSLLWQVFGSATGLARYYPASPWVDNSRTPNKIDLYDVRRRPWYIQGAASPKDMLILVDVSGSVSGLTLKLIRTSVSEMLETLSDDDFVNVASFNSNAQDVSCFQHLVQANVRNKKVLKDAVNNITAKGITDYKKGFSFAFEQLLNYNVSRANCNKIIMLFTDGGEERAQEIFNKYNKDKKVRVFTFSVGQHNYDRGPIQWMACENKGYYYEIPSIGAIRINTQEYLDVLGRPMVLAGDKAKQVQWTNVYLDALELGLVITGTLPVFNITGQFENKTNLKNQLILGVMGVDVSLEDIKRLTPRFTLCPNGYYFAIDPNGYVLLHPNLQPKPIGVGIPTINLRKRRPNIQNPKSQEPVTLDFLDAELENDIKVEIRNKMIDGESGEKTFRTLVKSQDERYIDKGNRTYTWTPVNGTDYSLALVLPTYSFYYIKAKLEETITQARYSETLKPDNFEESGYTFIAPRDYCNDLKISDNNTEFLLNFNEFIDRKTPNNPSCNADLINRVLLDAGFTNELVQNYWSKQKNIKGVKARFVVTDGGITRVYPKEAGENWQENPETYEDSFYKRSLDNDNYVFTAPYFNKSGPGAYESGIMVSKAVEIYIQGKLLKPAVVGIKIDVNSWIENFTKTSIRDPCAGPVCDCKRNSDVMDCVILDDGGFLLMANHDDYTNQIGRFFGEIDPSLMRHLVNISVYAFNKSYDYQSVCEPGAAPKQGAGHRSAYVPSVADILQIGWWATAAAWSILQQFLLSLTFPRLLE
human Cav2.2, sequence (P54289 957-1103 partner limits assumed): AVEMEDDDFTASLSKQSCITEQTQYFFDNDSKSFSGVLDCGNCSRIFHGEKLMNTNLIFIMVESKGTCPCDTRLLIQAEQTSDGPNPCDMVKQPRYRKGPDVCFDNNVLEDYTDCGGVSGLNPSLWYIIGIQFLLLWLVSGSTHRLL
human Cav2.2, sequence (P54284 whole entry partner): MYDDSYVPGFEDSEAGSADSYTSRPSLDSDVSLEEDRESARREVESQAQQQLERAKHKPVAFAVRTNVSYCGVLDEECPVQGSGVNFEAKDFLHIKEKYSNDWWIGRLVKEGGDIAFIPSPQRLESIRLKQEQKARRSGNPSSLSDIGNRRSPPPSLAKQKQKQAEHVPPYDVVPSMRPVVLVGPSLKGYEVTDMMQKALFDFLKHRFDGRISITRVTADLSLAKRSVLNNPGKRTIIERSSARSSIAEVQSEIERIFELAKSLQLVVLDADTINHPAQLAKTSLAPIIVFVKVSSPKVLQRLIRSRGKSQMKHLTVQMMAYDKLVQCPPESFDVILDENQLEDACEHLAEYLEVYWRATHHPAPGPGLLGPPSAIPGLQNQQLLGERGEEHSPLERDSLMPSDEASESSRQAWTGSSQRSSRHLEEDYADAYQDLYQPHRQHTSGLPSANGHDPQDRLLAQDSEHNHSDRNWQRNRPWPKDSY
The term IC50 denotes the concentration that gives 50% inhibition. Regarding `FC(F)(F)c1cccc(N2C[C@H]3CC[C@H](NCc4coc(-c5ccc(Cl)cc5)n4)[C@H]3C2)n1` [Example 741, (3aR,4S,6aS)-N-{[2-(4-chlorophenyl)-1,3-oxazol-4-yl]methyl}-2-[6-(trifluoromethyl)pyridin-2-yl]octahydrocyclopenta[c]pyrrol-4-amine], the 50% inhibitory concentration (IC50) came out at 1.16 µM.

With `FC(F)(F)c1ccc(-c2nc(CN[C@H]3CC[C@@H]4CN(c5cccc(C(F)(F)F)n5)C[C@@H]43)c[nH]2)cc1` [Example 742, (3aR,4S,6aS)-N-({2-[4-(trifluoromethyl)phenyl]-1H-imidazol-4-yl}methyl)-2-[6-(trifluoromethyl)pyridin-2-yl]octahydrocyclopenta[c]pyrrol-4-amine], the IC50 was 1.3 µM. The same measure for `Fc1ccc(-c2nc(CN[C@H]3CC[C@@H]4CN(c5cccc(C(F)(F)F)n5)C[C@@H]43)co2)cc1` [Example 743, (3aR,4S,6aS)-N-{[2-(4-fluorophenyl)-1,3-oxazol-4-yl]methyl}-2-[6-(trifluoromethyl)pyridin-2-yl]octahydrocyclopenta[c]pyrrol-4-amine]: 1 µM; for `Fc1ccc(-c2c[nH]c(CN[C@H]3CC[C@@H]4CN(c5cccc(C(F)(F)F)n5)C[C@@H]43)n2)cc1` [Example 744, (3aR,4S,6aS)-N-{[4-(4-fluorophenyl)-1H-imidazol-2-yl]methyl}-2-[6-(trifluoromethyl)pyridin-2-yl]octahydrocyclopenta[c]pyrrol-4-amine]: 1.21 µM; for `FC(F)(F)c1cccc(N2C[C@H]3CC[C@H](NCc4nc(-c5ccc(Cl)cc5)c[nH]4)[C@H]3C2)n1` [Example 745, (3aR,4S,6aS)-N-{[4-(4-chlorophenyl)-1H-imidazol-2-yl]methyl}-2-[6-(trifluoromethyl)pyridin-2-yl]octahydrocyclopenta[c]pyrrol-4-amine]: 3.51 µM. With `FC(F)(F)c1cccc(N2C[C@H]3CC[C@H](NCc4nc(-c5ccccc5)c[nH]4)[C@H]3C2)n1` [Example 746, (3aR,4S,6aS)-N-[(4-phenyl-1H-imidazol-2-yl)methyl]-2-[6-(trifluoromethyl)pyridin-2-yl]octahydrocyclopenta[c]pyrrol-4-amine], the IC50 amounted to 1.71 µM. The figure for `CN[C@H](C(=O)N[C@H]1CC[C@@H]2CN(c3ccc(C(F)(F)F)cc3)C[C@@H]21)C(C)C` [Example 747, N^2-methyl-N-{(3aR,4S,6aS)-2-[4-(trifluoromethyl)phenyl]octahydrocyclopenta[c]pyrrol-4-yl}-L-valinamide] is greater than 9.5 µM. The figure for `CN[C@@H](CO)C(=O)N[C@H]1CC[C@@H]2CN(c3ccc(C(F)(F)F)cc3)C[C@@H]21` [Example 749, N^2-methyl-N-{(3aR,4S,6aS)-2-[4-(trifluoromethyl)phenyl]octahydrocyclopenta[c]pyrrol-4-yl}-L-serinamide] is greater than 3 µM; for `CN[C@H](C(=O)N[C@H]1CC[C@@H]2CN(c3ccc(C(F)(F)F)cc3)C[C@@H]21)[C@H](C)O` [Example 750, N^2-methyl-N-{(3aR,4S,6aS)-2-[4-(trifluoromethyl)phenyl]octahydrocyclopenta[c]pyrrol-4-yl}-L-allothreoninamide] it is greater than 3 µM. Take `NCC(=O)N[C@H]1CC[C@@H]2CN(c3ccc(C(F)(F)F)cc3)C[C@@H]21` [Example 751, N-{(3aR,4S,6aS)-2-[4-(trifluoromethyl)phenyl]octahydrocyclopenta[c]pyrrol-4-yl}glycinamide]: the IC50 was greater than 3 µM. The figure for `CNCC(=O)N[C@H]1CC[C@@H]2CN(c3ccc(C(F)(F)F)cc3)C[C@@H]21` [Example 752, N^2-methyl-N-{(3aR,4S,6aS)-2-[4-(trifluoromethyl)phenyl]octahydrocyclopenta[c]pyrrol-4-yl}glycinamide] is greater than 9.5 µM. The same measure for `CN[C@@H](C)C(=O)N[C@H]1CC[C@@H]2CN(c3ccc(C(F)(F)F)cc3)C[C@@H]21` [Example 753, N^2-methyl-N-{(3aR,4S,6aS)-2-[4-(trifluoromethyl)phenyl]octahydrocyclopenta[c]pyrrol-4-yl}-L-alaninamide]: greater than 9.5 µM. Take `CNC(C)(C)C(=O)N[C@H]1CC[C@@H]2CN(c3ccc(C(F)(F)F)cc3)C[C@@H]21` [Example 754, N^2,2-dimethyl-N-{(3aR,4S,6aS)-2-[4-(trifluoromethyl)phenyl]octahydrocyclopenta[c]pyrrol-4-yl}alaninamide]: the IC50 turned out to be 6.78 µM. The figure for `CC[C@H](N)C(=O)N[C@H]1CC[C@@H]2CN(c3ccc(C(F)(F)F)cc3)C[C@@H]21` [Example 755, (2S)-2-amino-N-{(3aR,4S,6aS)-2-[4-(trifluoromethyl)phenyl]octahydrocyclopenta[c]pyrrol-4-yl}butanamide] is greater than 3 µM; for `CN[C@H](C(=O)N[C@H]1CC[C@@H]2CN(c3ccc(OC(F)(F)F)cc3)C[C@@H]21)C(C)C` [Example 756, N^2-methyl-N-{(3aR,4S,6aS)-2-[4-(trifluoromethoxy)phenyl]octahydrocyclopenta[c]pyrrol-4-yl}-L-valinamide] it is greater than 9.5 µM; for `CN[C@H](C(=O)N[C@H]1CC[C@@H]2CN(c3cccc(C(F)(F)F)c3)C[C@@H]21)C(C)C` [Example 757, N^2-methyl-N-{(3aR,4S,6aS)-2-[3-(trifluoromethyl)phenyl]octahydrocyclopenta[c]pyrrol-4-yl}-L-valinamide] it is 1.13 µM. On to `CN[C@H](C(=O)N[C@H]1CC[C@@H]2CN(c3cccc(OC(F)(F)F)c3)C[C@@H]21)C(C)C` [Example 758, N^2-methyl-N-{(3aR,4S,6aS)-2-[3-(trifluoromethoxy)phenyl]octahydrocyclopenta[c]pyrrol-4-yl}-L-valinamide], for which the 50% inhibitory concentration (IC50) is 1.42 µM. As for `CCC[C@H](NC)C(=O)N[C@H]1CC[C@@H]2CN(c3ccc(C(F)(F)F)cc3)C[C@@H]21` [Example 759, N^2-methyl-N-{(3aR,4S,6aS)-2-[4-(trifluoromethyl)phenyl]octahydrocyclopenta[c]pyrrol-4-yl}-L-norvalinamide], the IC50 was 13 µM. In the case of `CN[C@H](CC(C)C)C(=O)N[C@H]1CC[C@@H]2CN(c3ccc(C(F)(F)F)cc3)C[C@@H]21` [Example 760, N^2-methyl-N-{(3aR,4S,6aS)-2-[4-(trifluoromethyl)phenyl]octahydrocyclopenta[c]pyrrol-4-yl}-D-leucinamide], the IC50 worked out at 2.32 µM. As for `CC(C)NCC(=O)N[C@H]1CC[C@@H]2CN(c3ccc(C(F)(F)F)cc3)C[C@@H]21` [Example 761, N^2-isopropyl-N-{(3aR,4S,6aS)-2-[4-(trifluoromethyl)phenyl]octahydrocyclopenta[c]pyrrol-4-yl}glycinamide], the IC50 stood at 3.59 µM. As to `CC[C@H](NC(C)C)C(=O)N[C@H]1CC[C@@H]2CN(c3ccc(C(F)(F)F)cc3)C[C@@H]21` [Example 762, (2S)-2-(isopropylamino)-N-{(3aR,4S,6aS)-2-[4-(trifluoromethyl)phenyl]octahydrocyclopenta[c]pyrrol-4-yl}butanamide], the IC50 was 5.11 µM. The figure for `CN[C@H](C(=O)N[C@H]1CC[C@@H]2CN(c3ccc(C(F)(F)F)cn3)C[C@@H]21)C(C)C` [Example 763, N^2-methyl-N-{(3aR,4S,6aS)-2-[5-(trifluoromethyl)pyridin-2-yl]octahydrocyclopenta[c]pyrrol-4-yl}-L-valinamide] is 12.3 µM. `CN[C@H](C(=O)N[C@H]1CC[C@@H]2CN(c3cccc(C(F)(F)F)n3)C[C@@H]21)C(C)C` [Example 764, N^2-methyl-N-{(3aR,4S,6aS)-2-[6-(trifluoromethyl)pyridin-2-yl]octahydrocyclopenta[c]pyrrol-4-yl}-L-valinamide]: the IC50 was 0.95 µM.

For the molecule `CN[C@@H](CC(C)C)C(=O)N[C@H]1CC[C@@H]2CN(c3cnccc3C(F)(F)F)C[C@@H]21` [Example 765, N^2-methyl-N-{(3aR,4S,6aS)-2-[4-(trifluoromethyl)pyridin-3-yl]octahydrocyclopenta[c]pyrrol-4-yl}-L-leucinamide], the IC50 was determined as 2.59 µM. With `CN[C@@H](CC(C)C)C(=O)N[C@H]1CC[C@@H]2CN(c3ncc(C(F)(F)F)cc3Br)C[C@@H]21` [Example 766, N-{(3aR,4S,6aS)-2-[3-bromo-5-(trifluoromethyl)pyridin-2-yl]octahydrocyclopenta[c]pyrrol-4-yl}-N^2-methyl-L-leucinamide], the IC50 turned out to be 0.63 µM.

`CN[C@@H](CC(C)C)C(=O)N[C@H]1CC[C@@H]2CN(c3cccnc3C(F)(F)F)C[C@@H]21` [Example 767, N^2-methyl-N-{(3aR,4S,6aS)-2-[2-(trifluoromethyl)pyridin-3-yl]octahydrocyclopenta[c]pyrrol-4-yl}-L-leucinamide]: the concentration for half-maximal inhibition (IC50) was 6.93 µM. The figure for `CN[C@H](CC(C)C)C(=O)N[C@@H]1CC[C@H]2CN(c3ccc(C(F)(F)F)cc3)C[C@H]21` [Example 768, N^2-methyl-N-{(3aS,4R,6aR)-2-[4-(trifluoromethyl)phenyl]octahydrocyclopenta[c]pyrrol-4-yl}-D-leucinamide] is 2.36 µM; for `CN[C@@H](CC(C)C)C(=O)N[C@H]1CC[C@@H]2CN(c3ccc(F)c(C(F)F)c3)C[C@@H]21` [Example 769, N-{(3aR,4S,6aS)-2-[3-(difluoromethyl)-4-fluorophenyl]octahydrocyclopenta[c]pyrrol-4-yl}-N^2-methyl-L-leucinamide] it is 1.13 µM. The same measure for `CN[C@@H](CC(C)C)C(=O)N[C@H]1CC[C@@H]2CN(c3cc(F)ccc3C(F)F)C[C@@H]21` [Example 770, N-{(3aR,4S,6aS)-2-[2-(difluoromethyl)-5-fluorophenyl]octahydrocyclopenta[c]pyrrol-4-yl}-N^2-methyl-L-leucinamide]: 0.75 µM; for `CN[C@@H](CC(C)C)C(=O)N[C@H]1CC[C@@H]2CN(c3ccccc3C(F)F)C[C@@H]21` [Example 771, N-{(3aR,4S,6aS)-2-[2-(difluoromethyl)phenyl]octahydrocyclopenta[c]pyrrol-4-yl}-N^2-methyl-L-leucinamide]: 2.9 µM.

The record behind these values is US8691865B2 (AbbVie Inc., priority 2008, dated 2014).
